Test results as given in ChEMBL document CHEMBL1201862, “PubChem BioAssay data set” (2004).
The source made the active and inactive calls. For most assays here, no stated cut-off is given here; in the data, actives have a measured EC50 and inactives only a lower limit.

What was measured:
[1] = target: Lysine-specific demethylase 4C (Homo sapiens, UniProt Q9H3R0); test: inhibition of JMJD2C H3K9me3 demethylation – biochemical, DELFIA europium, cherry-picked samples, dose response (AID 488835); assay type: functional
Exodeoxyribonuclease V = target: T1, Exodeoxyribonuclease V (Escherichia coli (strain K12), UniProt P04993+P07648+P08394); test: RecBCD inhibition via phage-restricted bacterial growth – absorbance, V66 E. coli, mutant T4 phage, counter-screen for AddAB inhibitor project, dose response (AID 492957); assay type: functional, cell-based, Escherichia coli str. K-12 substr. MG1655
T1 sequence (P04993 whole entry): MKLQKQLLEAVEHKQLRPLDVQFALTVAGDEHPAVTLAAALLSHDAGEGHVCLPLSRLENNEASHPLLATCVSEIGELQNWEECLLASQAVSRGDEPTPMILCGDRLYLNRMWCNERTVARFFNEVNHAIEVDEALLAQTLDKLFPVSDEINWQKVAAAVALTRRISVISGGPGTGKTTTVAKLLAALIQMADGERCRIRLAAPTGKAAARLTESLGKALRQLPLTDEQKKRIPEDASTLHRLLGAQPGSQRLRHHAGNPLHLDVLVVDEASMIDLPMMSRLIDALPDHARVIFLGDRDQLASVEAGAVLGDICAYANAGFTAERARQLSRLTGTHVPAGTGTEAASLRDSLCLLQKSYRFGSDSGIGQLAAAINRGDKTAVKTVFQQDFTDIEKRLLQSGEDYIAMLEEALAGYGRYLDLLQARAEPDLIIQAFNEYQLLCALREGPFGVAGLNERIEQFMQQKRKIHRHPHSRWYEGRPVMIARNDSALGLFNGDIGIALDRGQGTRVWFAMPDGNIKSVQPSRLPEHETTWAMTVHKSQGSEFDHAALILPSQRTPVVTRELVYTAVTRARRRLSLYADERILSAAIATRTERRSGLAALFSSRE
T1 sequence (P07648 whole entry): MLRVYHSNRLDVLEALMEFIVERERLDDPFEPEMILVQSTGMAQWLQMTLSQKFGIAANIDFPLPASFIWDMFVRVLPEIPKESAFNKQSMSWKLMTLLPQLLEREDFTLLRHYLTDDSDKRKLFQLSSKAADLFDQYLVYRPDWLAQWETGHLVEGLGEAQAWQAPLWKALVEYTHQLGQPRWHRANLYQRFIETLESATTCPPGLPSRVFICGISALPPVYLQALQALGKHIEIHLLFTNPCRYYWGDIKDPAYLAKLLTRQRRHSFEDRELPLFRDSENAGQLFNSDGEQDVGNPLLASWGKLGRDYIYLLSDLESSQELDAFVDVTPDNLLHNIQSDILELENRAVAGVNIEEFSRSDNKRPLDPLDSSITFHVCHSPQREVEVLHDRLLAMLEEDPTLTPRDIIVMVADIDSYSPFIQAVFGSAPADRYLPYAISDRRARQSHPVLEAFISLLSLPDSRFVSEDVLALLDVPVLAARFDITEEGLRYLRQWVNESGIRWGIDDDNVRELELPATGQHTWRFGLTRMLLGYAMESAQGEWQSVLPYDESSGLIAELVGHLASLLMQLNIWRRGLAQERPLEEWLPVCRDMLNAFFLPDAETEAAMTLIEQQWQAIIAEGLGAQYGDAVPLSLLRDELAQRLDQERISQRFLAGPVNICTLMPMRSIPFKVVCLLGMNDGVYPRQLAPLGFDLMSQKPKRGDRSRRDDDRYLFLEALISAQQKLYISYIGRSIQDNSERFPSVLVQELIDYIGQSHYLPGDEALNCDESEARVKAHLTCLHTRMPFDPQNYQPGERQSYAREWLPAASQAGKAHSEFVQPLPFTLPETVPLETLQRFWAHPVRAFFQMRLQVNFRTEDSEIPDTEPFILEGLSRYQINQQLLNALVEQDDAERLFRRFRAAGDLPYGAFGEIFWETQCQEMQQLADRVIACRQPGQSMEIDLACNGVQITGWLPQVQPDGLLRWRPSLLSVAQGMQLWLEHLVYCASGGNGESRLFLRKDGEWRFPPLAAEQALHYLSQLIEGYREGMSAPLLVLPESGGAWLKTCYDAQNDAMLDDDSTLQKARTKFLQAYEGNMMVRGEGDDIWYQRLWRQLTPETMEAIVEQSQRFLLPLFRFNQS
T1 sequence (P08394 whole entry): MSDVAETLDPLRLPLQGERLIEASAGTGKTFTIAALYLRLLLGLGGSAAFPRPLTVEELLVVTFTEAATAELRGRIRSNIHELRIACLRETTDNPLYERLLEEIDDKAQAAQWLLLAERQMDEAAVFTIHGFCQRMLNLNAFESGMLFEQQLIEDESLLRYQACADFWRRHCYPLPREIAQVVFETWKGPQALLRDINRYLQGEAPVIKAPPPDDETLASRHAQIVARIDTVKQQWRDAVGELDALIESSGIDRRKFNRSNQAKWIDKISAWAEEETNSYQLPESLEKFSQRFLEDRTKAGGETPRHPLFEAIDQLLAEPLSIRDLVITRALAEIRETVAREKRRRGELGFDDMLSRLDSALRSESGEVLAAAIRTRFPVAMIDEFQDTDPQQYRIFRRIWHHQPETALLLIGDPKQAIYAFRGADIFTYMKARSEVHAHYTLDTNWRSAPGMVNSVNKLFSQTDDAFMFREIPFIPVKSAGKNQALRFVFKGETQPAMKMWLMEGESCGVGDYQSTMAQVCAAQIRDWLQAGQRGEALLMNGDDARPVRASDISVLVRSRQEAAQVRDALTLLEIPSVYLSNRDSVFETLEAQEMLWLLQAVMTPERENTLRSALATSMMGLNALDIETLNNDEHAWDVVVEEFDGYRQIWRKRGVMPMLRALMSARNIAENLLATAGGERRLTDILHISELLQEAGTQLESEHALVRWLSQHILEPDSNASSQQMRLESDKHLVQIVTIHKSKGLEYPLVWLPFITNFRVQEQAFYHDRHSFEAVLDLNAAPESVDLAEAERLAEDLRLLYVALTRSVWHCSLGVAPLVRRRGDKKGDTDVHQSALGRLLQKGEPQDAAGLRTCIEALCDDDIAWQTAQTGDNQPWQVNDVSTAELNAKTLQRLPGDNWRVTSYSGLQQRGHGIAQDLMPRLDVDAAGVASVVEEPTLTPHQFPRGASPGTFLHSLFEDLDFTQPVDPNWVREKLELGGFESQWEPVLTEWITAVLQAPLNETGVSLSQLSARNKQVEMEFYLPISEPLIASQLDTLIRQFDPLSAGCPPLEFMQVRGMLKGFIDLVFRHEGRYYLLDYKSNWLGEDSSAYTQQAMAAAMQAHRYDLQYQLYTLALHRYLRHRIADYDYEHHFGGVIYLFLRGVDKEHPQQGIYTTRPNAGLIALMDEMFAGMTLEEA

BJ = test: BJ-TERT-LT-ST fibroblast viability loss – cell-based, RAS-independent, luminescence, dose response (AID 1935); assay type: functional; details: Homo sapiens;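 further: BJ fibroblasts immortalized with TERT plus LT and ST oncogenes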
[2] = NIH3T3 cell viability loss – ATP luminescence, mouse fibroblasts, counter-screen, dose response (AID 2010); assay type: functional, cell-based;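 further: cells exposed to compound for about 90 hours before reading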
cells = assay type: functional, cell-based

Lysine-specific demethylase 4C, sequence (Q9H3R0 whole entry): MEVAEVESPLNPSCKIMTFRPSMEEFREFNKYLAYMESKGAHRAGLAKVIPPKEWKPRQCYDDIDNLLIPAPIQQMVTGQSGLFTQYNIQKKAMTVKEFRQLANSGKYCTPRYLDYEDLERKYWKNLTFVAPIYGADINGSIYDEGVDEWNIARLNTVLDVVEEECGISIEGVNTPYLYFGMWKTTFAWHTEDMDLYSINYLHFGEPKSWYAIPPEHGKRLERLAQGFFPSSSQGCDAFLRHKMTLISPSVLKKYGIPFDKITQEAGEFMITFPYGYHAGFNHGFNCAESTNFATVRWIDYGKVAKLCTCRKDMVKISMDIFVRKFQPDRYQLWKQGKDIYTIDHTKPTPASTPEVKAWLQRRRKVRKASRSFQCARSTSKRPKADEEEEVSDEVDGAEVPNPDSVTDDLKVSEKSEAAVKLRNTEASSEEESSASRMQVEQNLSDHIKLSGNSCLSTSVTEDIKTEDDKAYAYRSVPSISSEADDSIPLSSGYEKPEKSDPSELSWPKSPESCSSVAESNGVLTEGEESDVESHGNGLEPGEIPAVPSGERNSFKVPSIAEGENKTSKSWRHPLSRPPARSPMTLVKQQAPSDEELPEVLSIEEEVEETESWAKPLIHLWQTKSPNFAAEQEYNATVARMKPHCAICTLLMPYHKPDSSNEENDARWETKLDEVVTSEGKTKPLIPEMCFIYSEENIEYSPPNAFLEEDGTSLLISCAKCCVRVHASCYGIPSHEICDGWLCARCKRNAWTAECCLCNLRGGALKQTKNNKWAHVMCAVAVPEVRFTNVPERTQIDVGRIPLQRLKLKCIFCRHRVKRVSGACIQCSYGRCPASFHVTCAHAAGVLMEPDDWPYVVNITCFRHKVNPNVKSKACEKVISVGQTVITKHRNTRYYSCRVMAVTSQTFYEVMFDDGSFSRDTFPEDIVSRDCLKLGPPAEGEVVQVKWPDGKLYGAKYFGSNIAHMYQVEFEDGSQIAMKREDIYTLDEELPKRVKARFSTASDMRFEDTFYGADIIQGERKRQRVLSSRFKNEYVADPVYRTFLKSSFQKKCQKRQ

Row | SMILES | AC50 [1] | IC50 (Exodeoxyribonuclease V) | EC50 (BJ) | EC50 [2] | EC50 (cells)
1 | N#Cc1c(N2CCCCC2)nc(N)c2c(N)nc(SCC(=O)O)cc12 | 5.4 µM (active) | – | – | – | –
2 | CCCC(=O)NC(c1ccc(C(C)C)cc1)c1ccc2cccnc2c1O (stereo not given) | – | > 119 µM (inactive) | 2.1 µM (inconclusive) | 3.75 µM (active) | 3.8 µM (active)
